Drawing on US7432264B2, “Antimicrobial biaryl compounds” (Isis Pharmaceuticals, Inc., priority 2000, dated 2008), this text covers MIC for 17 compounds.

≈ marks a conversion by molar mass, not a printed value. Where two headings read alike, the source gives them in different places.

Assay [1] deals with E. coli ATCC 25922. As to the kind of experiment: Minimum inhibitory concentration (MIC), E. coli. The format is cell-based, Escherichia coli. The settings on record: Escherichia coli. The protocol:
(§1) Bacterial Strains. The Streptococcus pyogenes strains, Klebsiella pneumoniae, Escherichia coli, Staphylococcus aureus, Enterococcus faecalis used in the antibacterial activity studies ATCC 14289, 49399, 13883, 25922, 13709, 29212, respectively, are obtained from the American Type Culture Collection, Rockville, Md. The strain E. coli imp— is a mutant strain of wild type E. coli with increased outer membrane permeability and was grown in LB broth at 37 °C. S. pyogenes strain is grown in Todd-Hewitt broth. S. aureus is grown in trypticase soy broth, E. faecalis in Todd-Hewitt broth, wild type E. coli and K. pneumoniae, in nutrient broth.
(§2) Determination of Minimum Inhibitory Concentrations (MICs). The assays were carried out in […] volume in duplicate in 96-well clear flat-bottom plates. The bacterial suspension from an overnight culture growth in appropriate medium was added to a solution of test compound in 4% DMSO in water. Final bacterial inoculum was approximately 10^5-10^6 CFU/well. The percent growth of the bacteria in test wells relative to that observed for a well containing no compound was determined by measuring absorbance at 595 nm (A595) after 24 h. […] Both ampicillin and tetracycline is used as antibiotic-positive controls in each screening assay for S. pyogenes, E. coli imp-, E. coli, S. aureus, E. faecalis, K pneumoniae and P. vulgaris. Ciprofloxacin is used as an antibiotic positive control in each screening assay for P. aeruginosa.

Assay [2] relates to S. aureus ATCC 13709. Kind of assay: Minimum inhibitory concentration (MIC), S. aureus. The format is cell-based, Staphylococcus aureus. Conditions: Staphylococcus aureus. The protocol: as §1, §2
[3] abbreviates: ATCC25922, 24 h, read-out: MIC (E. coli).
[4] abbreviates: ATCC13709, 24 h, read-out: MIC (S. aureus).
Setting [5] is: ATCC25922, read-out: MIC (E. coli) +serum.
The mark [6] stands for this setting: ATCC25922, read-out: MIC (E. coli) alone.
The mark [7] stands for this setting: ATCC13709, read-out: MIC (S. aureus) +serum, with serum.
The mark [8] stands for this setting: ATCC13709, read-out: MIC (S. aureus) alone, alone (no serum).

With `Cc1ccc(F)cc1-c1ccc(C(=O)Nc2cccc(-c3ccc(C(=O)NC(C(=O)N4CCNCC4)c4ccc(OCCCN(C)C)cc4)o3)c2)cc1` (centres unmarked) [Compound 52], the MIC in assay [1] (setting [3]) was in the range of 13 to 25 mM (≈ 9330 to 17900 µg/mL); in assay [2] (setting [4]), 6 to 13 mM (≈ 4310 to 9330 µg/mL).
For `CN(C)CCCOc1ccc(C(NC(=O)c2ccc(-c3cccc(NC(=O)c4ccc(-c5ccccc5F)cc4)c3)o2)C(=O)N2CCNCC2)cc1` (centres unmarked) [Compound 53], in that order: 13 to 25 mM (≈ 9150 to 17600 µg/mL) and 6 to 13 mM (≈ 4220 to 9150 µg/mL).
As for `CN(C)CCCOc1ccc(C(NC(=O)c2ccc(-c3cccc(NC(=O)c4ccc(-c5c(F)cccc5F)cc4)c3)o2)C(=O)N2CCNCC2)cc1` (centres unmarked) [Compound 54], the MIC in assay [1] (setting [3]) lay in the range of 3 to 6 mM (≈ 2170 to 4330 µg/mL); in assay [2] (setting [4]), 13 to 25 mM (≈ 9380 to 18000 µg/mL).
For `CN(C)CCCOc1ccc(C(NC(=O)c2ccc(-c3cccc(NC(=O)c4ccc(-c5ccc(F)cc5F)cc4)c3)o2)C(=O)N2CCNCC2)cc1` (centres unmarked) [Compound 55], in that order: 25 to 50 mM (≈ 18000 to 36100 µg/mL) and 6 to 13 mM (≈ 4330 to 9380 µg/mL).
Consider `CN(C)CCCOc1ccc(C(NC(=O)c2ccc(-c3cccc(NC(=O)c4ccc(-c5ccccc5)cc4F)c3)o2)C(=O)N2CCNCC2)cc1` (centres unmarked) [Compound 59], for which the MIC in assay [1] (setting [3]) lay in the range of 3 to 6 mM (≈ 2110 to 4220 µg/mL); in assay [2] (setting [4]) it was 6 to 13 mM (≈ 4220 to 9150 µg/mL).
Taken in the same sequence, the figures for `CN(C)CCCOc1ccc(C(NC(=O)c2ccc(-c3cccc(NC(=O)c4ccc(-c5ccccc5)cc4Cl)c3)o2)C(=O)N2CCNCC2)cc1` (centres unmarked) [Compound 60] were 6 to 13 mM (≈ 4320 to 9360 µg/mL) and 25 to 50 mM (≈ 18000 to 36000 µg/mL).
On to `Cc1cc(C(=O)Nc2cccc(-c3ccc(C(=O)NC(C(=O)N4CCNCC4)c4ccc(OCCCN(C)C)cc4)o3)c2)ccc1-c1ccccc1` (centres unmarked) [Compound 62], for which the MIC in assay [1] (setting [3]) fell in the range of 3 to 6 mM (≈ 2100 to 4200 µg/mL); in assay [2] (setting [4]), 12 to 25 mM (≈ 8400 to 17500 µg/mL).
For `CN(C)CCCOc1ccc(C(C(=O)N2CCNCC2)N(C)Cc2ccc(-c3cccc(NC(=O)c4ccc(-c5ccccc5)cc4)c3)o2)cc1` (centres unmarked) [Compound 64], in that order: 6 to 13 mM (≈ 4120 to 8920 µg/mL) and 3 to 6 mM (≈ 2060 to 4120 µg/mL).
`CN(C)CCCOc1ccc(C(NC(=O)c2ccc(-c3cccc(NCc4ccc(-c5ccccc5)cc4)c3)o2)C(=O)N2CCNCC2)cc1` (centres unmarked) [Compound 65]: the MIC is 13 to 25 mM (≈ 8730 to 16800 µg/mL) in assay [1] (setting [3]) and 3 to 6 mM (≈ 2020 to 4030 µg/mL) in assay [2] (setting [4]).
Turning to `CN(C)CCCOc1ccc(C(NC(=O)c2ccc(-c3cccc(N(C)Cc4ccc(-c5ccccc5)cc4)c3)o2)C(=O)N2CCNCC2)cc1` (centres unmarked) [Compound 66], the MIC in assay [1] (setting [3]) was 13 to 25 mM (≈ 8920 to 17100 µg/mL); in assay [2] (setting [4]) it was 3 to 6 mM (≈ 2060 to 4120 µg/mL).
For `CN(C)CCCCC(NC(=O)c1ccc(-c2cccc(NC(=O)c3ccc(-c4ccccc4)cc3)c2)o1)C(=O)N1CCNCC1` (centres unmarked) [Compound 68], in that order: 50 to 100 mM (≈ 30400 to 60800 µg/mL) and 25 to 50 mM (≈ 15200 to 30400 µg/mL).
Taken in the same sequence, the figures for `CN(C)CCCOc1ccc(C(NC(=O)c2ccc(-c3cccc(NC(=O)c4ccc(-c5ccccc5)cc4)c3)s2)C(=O)N2CCNCC2)cc1` (centres unmarked) [Compound 69] were 25 to 50 mM (≈ 17500 to 35100 µg/mL) and 25 to 50 mM (≈ 17500 to 35100 µg/mL).
Take `CN(C)CCCOc1ccc(C(NC(=O)c2ccc(-c3cccc(NC(=O)c4ccc(-c5ccccc5)cc4)c3)o2)C(=O)N2CCN(C)CC2)cc1` (centres unmarked) [Compound 70]: the MIC in assay [1] (setting [3]) and in assay [2] (setting [4]) was 25 to 50 mM (≈ 17500 to 35000 µg/mL) each time.
Turning to `CN(C)CCCOc1ccc(C(NC(=O)c2ccc(-c3cccc(NC(=O)c4ccc(-c5ccccc5)cc4)c3)o2)C(=O)N2CCN(S(C)(=O)=O)CC2)cc1` (centres unmarked) [Compound 71], the MIC in assay [1] (setting [3]) and in assay [2] (setting [4]) was > 100 mM in each case.
`COC(=O)N1CCN(C(=O)C(NC(=O)c2ccc(-c3cccc(NC(=O)c4ccc(-c5ccccc5)cc4)c3)o2)c2ccc(OCCCN(C)C)cc2)CC1` (centres unmarked) [Compound 72]: the MIC in assay [1] (setting [3]) and in assay [2] (setting [4]) was > 100 mM throughout.
For the compound `CN(C)CCCOc1ccc(C(NC(=O)c2ccc(-c3cccc(NC(=O)c4ccc(-c5ccccc5)cc4)c3)o2)C(=O)N2CCNCC2)cc1` (centres unmarked) [drawing 88], the MIC in assay [1] (setting [5]) lay within 50 to 100 mM (≈ 34300 to 68600 µg/mL); in assay [1] (setting [6]), 6 to 13 mM (≈ 4110 to 8920 µg/mL); in assay [2] (setting [7]), 50 to 100 mM (≈ 34300 to 68600 µg/mL); in assay [2] (setting [8]), 3 to 6 mM (≈ 2060 to 4110 µg/mL).
Take `CN(C)CCCOc1ccc(C(NC(=O)c2ccc(-c3cccc(N(C)Cc4ccc(-c5ccccc5)cc4)c3)o2)C(=O)N2CCNCC2)cc1` (centres unmarked) [drawing 89]: the MIC in assay [1] (setting [5]) was > 100 mM; in assay [1] (setting [6]) it was 6 to 13 mM (≈ 4120 to 8920 µg/mL); in assay [2] (setting [7]) it was 50 to 100 mM (≈ 34300 to 68600 µg/mL); in assay [2] (setting [8]) it was 3 to 6 mM (≈ 2060 to 4120 µg/mL).

In general, MIC refers to the lowest concentration that inhibits growth of the organism.
